Like-named read-outs stand apart in the source and are kept apart here.
Experiments:
[1] = system: PANK2 silenced human neuroblastoma IMR32 cells (PANK2−/−); assay: Coenzyme A assay in PANK2 silenced cells (LC-MS quantification of free CoA); format: cell-based; settings: compound added twice (24 h + 24 h), relative to 0.1% DMSO controls
How it was run: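 Free intracellular CoA was measured by positive-mode LC-MS/MS of 20% TFA extracts, taking 2 μl per 10^6 cells as intracellular volume. Cells were IMR32 with stable lentiviral PANK2 knockdown, dosed twice 24 h apart (48 h total, 0.1% DMSO). Output is fold increase over vehicle.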

[2] = Stability in mouse hepatocytes; format: in vitro ADME
Method: Stability in hepatocytes for select compounds disclosed in the application was evaluated in two species (mouse and human) according to the following procedure. Compounds and positive control samples were dissolved in 100% DMSO at 5 mM. Cryopreserved hepatocytes were thawed and resuspended in Hepatocyte Basal Medium (HBM-Lonza CC-3199) supplemented with CC-4182 (complete hepatocyte culture medium). Test compounds were diluted into cell suspension (1 million cells/ml) from the stock solutions to have a test compound concentration of 5 μM (0.1% DMSO). Incubation was performed in 24-well plates, at 37° C. in a DUBNOFF water bath, under low shaking. Each compound was tested at 6 time points, in duplicates (0, 15, 30, 60, 120 and 240 min). At each time point, an aliquot of 120 μl was taken and transferred to a 96-well deep plate. The reaction was stopped with the addition of one volume of 100% acetonitrile plus 0.1% formic acid and the appropriate internal standard. Then samples were centrifuged at 1100×g for 30 min at +4° C. and supernatants were transferred to a new 96-deepwell plate. Samples were evaporated under N2 and reconstituted in H2O/ACN 0.1% Formic Acid (98:2). Analysis was performed without a calibration curve (Acquity UPLC-Waters; Sciex API4000). Time 0 was obtained adding acetonitrile before addition of the test compound. […] The half-life (t1/2) expressed in hours is derived using Equation 1 as shown in Example 64.

[3] = Stability in human hepatocytes; format: in vitro ADME; settings: for half-life at 5 µM: t1/2, Human Hepatocytes
[4] = Permeability in porcine brain endothelial cell blood-brain barrier model; format: in vitro ADME; settings: pig (endothelial cells), co-cultured with rat astrocytes, pH 7.4, PBECs/As blood-brain barrier model, luminal to basal
Excerpt: Compounds disclosed herein show the potential to reach mammalian brain by crossing the blood-brain barrier (BBB) from systemic circulation. […] The porcine brain endothelial cell permeability assay is an in vitro BBB model to be used for the prediction of central nervous system (CNS) drug permeability in vivo and for ranking or prioritization of compounds according to their permeability. This system can also be used for mechanistic studies and drug delivery strategies via receptor-mediated transport (transcytosis). The system is a two-dimensional co-culture, non-contact model of two types of primary cells: primary brain endothelial cells obtained from fresh porcine brains, and primary rat astrocytes, obtained from neonatal rats. This ensures barrier formation and functional expression of key transporters.
The endothelial cells were cultured on rat-tail collagen type I and human fibronectin coated Transwell polycarbonate inserts (surface area 0.7 cm^2; pore size 0.4 μm) and the inserts were placed in 24-well plates containing confluent rat astrocytes. This system allows for the formation of a differentiated BBB model suitable for compound permeability in 10 days.
On the day of the experiment, culture medium was removed and cells were pre-incubated for 30 min with HBSS containing 20 mM Hepes pH 7.4 and 0.1% BSA. Donor volume (apical) was 400 μl and receiver volume (basal) 900 μl. Compounds were diluted in assay medium (at the desired concentration) and added to the luminal side (to mimic blood to brain passage). Transport was measured usually after 60 min by detecting the amount of compound from the basal (brain side). The integrity of the cell layers was assessed by measuring the transendothelial electrical resistance (TEER) and by monitoring FITC-dextran (40 KDa) permeation. Inserts with TEER values […] were selected for permeability studies. As FITC-dextran cannot freely permeate lipophilic barriers, a high degree of FITC-dextran transport indicates poor integrity of the cell layer and wells with high FITC-dextran permeability were excluded. FITC-dextran was included as internal control in each insert used for permeability studies. Fluorescence was measured using a fluorimetric detector. Radioactivity was measured by scintillation counting. For LC-MS/MS analysis, aliquots (200 μl) from the basal compartment were diluted with an equal volume of 100% acetonitrile containing 0.1% formic acid, centrifuged to remove cell debris, and evaporated under N2. After reconstitution, samples were analyzed by LC-MS/MS. Mass balance was determined considering the amount of compound recovered in the donor and receiver chamber at the end of the assay relative to the amount added to the donor chamber at time 0.
Permeability was defined as the apparent permeability coefficient (Papp), which is a measure of the appearance rate of the compound in the receiver chamber, expressed in cm/s. Papp is calculated according the following equation: Papp[cm/sec]=Vd*ΔMr/A*Md*Δt, Equation 2: where
Vd=volume in the donor compartment in cm^3 or mL;
ΔMr=total amount of compound in the receiver compartment after t seconds;
Md=donor amount (added at time 0)
Δt=time measured in seconds
A=filter area in cm^2 (for 24 well plate, A=0.7 cm^2).
To correct for the contribution of filter and substrate, Papp was also determined for the cell-free system. Permeability of the endothelial cell layer was determined using the following equation: […], Equation 3: where
Ptotal=the P of the total system,
Pf=P for the cell-free filter, and
Pe=P for the endothelial cell layer alone. In this equation, the total resistance of the system towards passage of a substance is additively composed of two […] resistances: that of the cell monolayer and that of the filter.

[5] = Chemical stability in aqueous solution (phosphate buffered saline, NMR)
Method: To measure chemical stability in aqueous solution, the half-life (t1/2), or time needed for the concentration to decrease by half, was determined for select compounds in phosphate buffered saline solution. Compounds were dissolved in a solution containing 10 mM phosphate buffer (pH 7.5) and 5% of D2O to a final concentration of −1 mM. All spectra were obtained at 37° C. on a Bruker Avance 600 NMR spectrometer equipped with an inverse broad-band probe with z-gradients. Data were obtained every 15 min for a total time period of 4 h or longer, according to the observed stability. ^31P NMR was performed at 242.55 MHz, with gated decoupling of the protons. An observation frequency range of 14619.9 Hz and 32 K complex data points were used for acquisition. A pulse angle of 90° and a 4-sec pulse cycle were utilized. Thirty-two accumulations were obtained before Fourier transformation of the free induction decay. ^1H NMR spectra were acquired using the 1DNOESY experiment with water presaturation for better solvent suppression. An observation frequency range of 12019.23 Hz, a 10-sec pulse cycle, and 32 K complex data points were used for acquisition. Sixty-four scans were added prior to Fourier transformation. Integral data were obtained using the TopSpin software.
Stability was determined based on analysis of disappearance of the compounds as a function of incubation time. Quantification of test compounds was measured as a peak area relative to an internal standard. The elimination constant, k, was calculated by plotting mean disappearance values on a semi-logarithmic scale and fitting with a best fit linear regression. The half-life (t1/2) expressed in hours was derived using Equation 1: t1/2=ln2/(−k). Equation 1:

[6] = Stability in mouse plasma; format: in vitro ADME; settings: mouse, plasma
How it was run: (§1)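 Test compound at 3 μM (0.1% DMSO) was incubated in mouse or human plasma at 37 °C and sampled in duplicate at 0, 10, 20, 30, 40 and 60 min. Reactions were stopped with acetonitrile/formic acid containing internal standard. Remaining parent was measured by UPLC-MS/MS without a calibration curve.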

[7] = Stability in human plasma; format: in vitro ADME; settings: human, plasma, 37° C.
How it was run: as §1

[8] = t1/2, Mouse Hepatocytes, Diastereoisomer A
[9] = Diastereoisomer A, read-out: Papp Diastereoisomer A
[10] = t1/2, Mouse Hepatocytes, Diastereoisomer B
[11] = pH 7.5, t1/2 (h) Diastereoisomer A, 10 mM phosphate buffer pH 7.5, 37° C., Diastereoisomer A = upfield shift in the 31P NMR
[12] = pH 7.5, t1/2 (h) Diastereoisomer B, 10 mM phosphate buffer pH 7.5, 37° C., Diastereoisomer B

SMILES: CCc1cc(C(=O)OCO[P@@]2(=O)OCC(C)(C)[C@H](C(=O)NCCC(=O)OC)O2)n(C)n1 (single isomer, unassigned) [Compound No. 2-127]
- PANK2−/− CoA (Fold Increase): fold increase in Coenzyme A (CoA) levels relative to controls [1]: 14.41 Fold Increase
- half-life at 5 µM [2, 8]: < 15 min
- half-life at 5 µM ([3]; Diastereoisomer A): 17.4 min
- Papp A→B at 60 min [4, 9]: 11.8 ×10⁻⁶ cm/s

SMILES: CCc1cc(C(=O)OCO[P@]2(=O)OCC(C)(C)[C@H](C(=O)NCCC(=O)OC)O2)n(C)n1 (single isomer, unassigned) [Compound No. 2-129]
- PANK2−/− CoA (Fold Increase): fold increase in Coenzyme A (CoA) levels relative to controls [1]: 88.66 Fold Increase
- half-life at 5 µM [2, 10]: < 15 min
- half-life at 5 µM ([3]; Diastereoisomer B): < 15 min
- Papp A→B at 60 min ([4]; Diastereoisomer B, read-out: Papp Diastereoisomer B): 11.5 ×10⁻⁶ cm/s

SMILES: COC(=O)CCNC(=O)[C@@H]1O[P@@](=O)(OCC(F)(F)F)OCC1(C)C [2-138, methyl 3-((2R,4R)-5,5-dimethyl-2-oxido-2-(2,2,2-trifluoroethoxy)-1,3,2-dioxaphosphinane-4-carboxamido)propanoate]
- PANK2−/− CoA (Fold Increase): fold increase in Coenzyme A (CoA) levels relative to controls [1]: 1.13 Fold Increase
- half-life at 5 µM ([3]; Diastereoisomer A): > 240 min
- Papp A→B at 60 min [4, 9]: 15.6 ×10⁻⁶ cm/s

SMILES: COC(=O)CCNC(=O)[C@@H]1O[P@@](=O)(OCCC(C)C)OCC1(C)C [compound 50, methyl 3-((2S,4R)-2-(isopentyloxy)-5,5-dimethyl-2-oxido-1,3,2-dioxaphosphinane-4-carboxamido)propanoate]
- half-life at 1 mM [5, 11]: > 80 h

SMILES: COC(=O)CCNC(=O)[C@@H]1OP(=O)(OCCCN2CCOCC2)OCC1(C)C (stereo partly drawn) [compound 52, methyl 3-((4R)-5,5-dimethyl-2-(3-morpholinopropoxy)-2-oxido-1,3,2-dioxaphosphinane-4-carboxamido)propanoate]
- PANK2−/− CoA (Fold Increase): fold increase in Coenzyme A (CoA) levels relative to controls [1]: 1.58 Fold Increase
- half-life at 3 µM [6]: < 9.6 min
- t1/2, Mouse Plasma, Diastereoisomer B ([6]; 3 µM): <9.6 min
- half-life at 3 µM ([7]; Diastereoisomer A (upfield shift in 31P NMR), read-out: t1/2, Human Plasma, Diastereoisomer A (converted)): > 60 min
- half-life at 3 µM ([7]; Diastereoisomer B, read-out: t1/2, Human Plasma, Diastereoisomer B (converted)): > 60 min
- half-life at 1 mM [5, 11]: 23.5 h
- half-life at 1 mM [5, 12]: 5.1 h

SMILES: COC(=O)CCNC(=O)[C@@H]1OP(=O)(OCCCOCc2ccccc2)OCC1(C)C (stereo partly drawn) [compound 53, methyl 3-((4R)-2-(3-(benzyloxy)propoxy)-5,5-dimethyl-2-oxido-1,3,2-dioxaphosphinane-4-carboxamido)propanoate]
- half-life at 5 µM [2, 8]: 16.8 min
- half-life at 5 µM [2, 10]: < 15 min
- half-life at 5 µM ([3]; Diastereoisomer A): 34.2 min
- half-life at 5 µM ([3]; Diastereoisomer B): < 15 min
- half-life at 1 mM [5, 11]: > 80 h
- half-life at 1 mM [5, 12]: > 80 h

SMILES: COC(=O)CCNC(=O)[C@@H]1O[P@](=O)(OCc2ccccc2)OCC1(C)C [compound 54, methyl 3-((2R,4R)-2-(benzyloxy)-5,5-dimethyl-2-oxido-1,3,2-dioxaphosphinane-4-carboxamido)propanoate]
- half-life at 5 µM [2, 8]: < 15 min
- half-life at 5 µM ([3]; Diastereoisomer A): < 15 min
- Papp A→B at 60 min [4, 9]: 18.1 ×10⁻⁶ cm/s

SMILES: COC(=O)CCNC(=O)[C@@H]1OP(=O)(O)OCC1(C)C [compound 55, methyl 3-((4R)-2-hydroxy-5,5-dimethyl-2-oxido-1,3,2-dioxaphosphinane-4-carboxamido)propanoate]
- PANK2−/− CoA (Fold Increase): fold increase in Coenzyme A (CoA) levels relative to controls [1]: 1.92 Fold Increase
- half-life at 1 mM ([5]; pH 7.5, t1/2 (h), pH 7.5, 37° C., compound not chiral at phosphorous, one value spanning both columns): > 60 h

SMILES: COC(=O)CCNC(=O)[C@@H]1O[P@@](OCCc2ccccc2)OCC1(C)C [compound 58, methyl 3-((2S,4R)-5,5-dimethyl-2-phenethoxy-1,3,2-dioxaphosphinane-4-carboxamido)propanoate]
- half-life at 1 mM ([5]; pH 7.5): > 80 h

SMILES: COC(=O)CCNC(=O)[C@@H]1OP(=O)(NCCc2ccncc2)OCC1(C)C (stereo partly drawn) [compound 111, methyl 3-((4R)-5,5-dimethyl-2-oxido-2-((2-(pyridin-4-yl)ethyl)amino)-1,3,2-dioxaphosphinane-4-carboxamido)propanoate]
- half-life at 5 µM ([2]; Diastereoisomer A (upfield shift in 31P NMR), 5 μM, 1 million cells/ml, 37° C., mouse hepatocytes, read-out: t1/2, Mouse Hepatocytes, Diastereoisomer A (converted)): 28.8 min
- half-life ([3]; Diastereoisomer A (upfield shift in 31P NMR), 5 μM, 1 million cells/ml, 37° C., human hepatocytes, read-out: t1/2, Human Hepatocytes, Diastereoisomer A (converted)): 171 min
- Papp A→B at 60 min [4, 9]: 0.7 ×10⁻⁶ cm/s

Source: patent US10364263B2, “Cyclic phosphates and cyclic phosphoramidates for the treatment of neurologic disorders” (Retrophin, Inc., priority 2015, dated 2019)
